# From US20190321431A1, “PREPARATION AND APPLICATION OF Syzygium zeylanicum L. EXTRACT” (Tamkang University, priority 2018, published 2019)
# Assays:
# [1] = target: S. cerevisiae alpha-glucosidase (Saccharomyces cerevisiae, UniProt P53341); format: biochemical
# Protocol: (§1) The test steps of this example are as follows. Firstly, the Syzygium zeylanicum L. extract was mixed a buffer (potassium phosphate buffer) with 1:9 volume to produce a Syzygium zeylanicum L. extract solution. The Syzygium zeylanicum L. extract solution and alpha-glucosidase (enzyme) were mixed into the buffer at a volume ratio of 1:1. In this example, 15 μl extract solution and the enzyme were separately mixed into 100 μl buffer at 37° C. for 20 minutes. Then, 50 μl matrix p-nitrophenyl glucopyranoside (pNPG) was added at 37° C. for 40 minutes; then 100 μl, 1 mol/L of Na2CO3 was added to stop the reaction. Finally, the absorbance of OD 410 nm was measured, and calculated the inhibition activity of alpha-glucosidase. The above experimental steps was the subsequent enzyme activity test method of the present invention, and only different conditions, such as extraction solvent, reaction temperature or pH were changed.
# (§2) The enzyme activity inhibition test of Example 2 was used in this example. […] The enzymes were S. cerevisiae alpha-glucosidase, rat alpha-glucosidase, B. stearothermophilus alpha-glucoside), porcine pancreatic alpha-amylase, B. subtilis alpha-amylase, and human saliva alpha-amylase.
# [2] = target: T1, Porcine pancreatic alpha-amylase (Sus scrofa, UniProt P00690); assay: Enzyme activity inhibition test, porcine pancreatic alpha-amylase; format: biochemical
# T1 sequence (P00690 16-511): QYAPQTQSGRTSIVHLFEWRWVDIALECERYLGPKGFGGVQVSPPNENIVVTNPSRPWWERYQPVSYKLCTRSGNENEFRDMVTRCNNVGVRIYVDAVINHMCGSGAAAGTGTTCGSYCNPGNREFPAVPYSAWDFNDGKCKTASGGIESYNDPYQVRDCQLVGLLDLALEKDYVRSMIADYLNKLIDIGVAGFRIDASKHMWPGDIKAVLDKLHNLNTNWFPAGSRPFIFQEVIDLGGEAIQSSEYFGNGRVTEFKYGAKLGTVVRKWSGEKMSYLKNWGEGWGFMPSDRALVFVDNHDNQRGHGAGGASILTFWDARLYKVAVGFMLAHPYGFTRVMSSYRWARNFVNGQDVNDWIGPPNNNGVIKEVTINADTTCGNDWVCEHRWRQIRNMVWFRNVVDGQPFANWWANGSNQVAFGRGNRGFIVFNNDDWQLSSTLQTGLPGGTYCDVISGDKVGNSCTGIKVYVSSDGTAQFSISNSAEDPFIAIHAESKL
# Protocol: as §1, §2
# Sequence of S. cerevisiae alpha-glucosidase (P53341 whole entry): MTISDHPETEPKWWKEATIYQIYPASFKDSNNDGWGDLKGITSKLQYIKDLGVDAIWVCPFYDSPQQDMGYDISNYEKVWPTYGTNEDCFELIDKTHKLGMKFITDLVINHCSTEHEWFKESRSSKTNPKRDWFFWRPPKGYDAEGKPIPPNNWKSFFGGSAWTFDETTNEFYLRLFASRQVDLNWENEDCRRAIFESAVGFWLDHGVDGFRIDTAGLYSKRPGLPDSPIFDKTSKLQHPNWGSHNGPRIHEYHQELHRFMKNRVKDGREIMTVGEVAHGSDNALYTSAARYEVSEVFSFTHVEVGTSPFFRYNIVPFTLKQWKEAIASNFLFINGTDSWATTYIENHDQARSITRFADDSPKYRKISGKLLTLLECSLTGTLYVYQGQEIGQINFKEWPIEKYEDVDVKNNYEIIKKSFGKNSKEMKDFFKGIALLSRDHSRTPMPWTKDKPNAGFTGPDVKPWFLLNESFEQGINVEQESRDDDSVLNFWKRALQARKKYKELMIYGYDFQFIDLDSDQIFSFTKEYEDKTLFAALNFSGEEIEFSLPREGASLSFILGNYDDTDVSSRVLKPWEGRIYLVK
smiles,measurement,setting,value
C[C@H]1O[C@H](O[C@H]2[C@H](O)[C@@H](O)[C@@H](O[C@H]3[C@H](O)[C@@H](O)C(O)O[C@@H]3CO)O[C@@H]2CO)[C@H](O)[C@@H](O)[C@@H]1N[C@H]1C=C(CO)[C@@H](O)[C@H](O)[C@H]1O (some centres unmarked) [Acarbose],Maximum Inhibitory Activity,[1],64 ± 2.3%
same,Maximum Inhibitory Activity,[2],91 ± 2.5%
